Paper PMC7127794 (Bioorganic & Medicinal Chemistry Letters, 2015)

How the values were obtained:
[1] = tested on: influenza virus A/H1N1/pdm09; assay type: cell-based, influenza virus A/California/07/09/H1N1/pdm09
MDCK cells = conditions: dog

CC1(C)[C@@H](O[C@@H]2O[C@H](C(=O)O)[C@@H](O)[C@H](O)[C@H]2O[C@@H]2O[C@H](C(=O)O)[C@@H](O)[C@H](O)[C@H]2O)CC[C@]2(C)C3=CC=C4[C@@H]5C[C@@](C)(C(=O)O)CC[C@]5(C)CC[C@@]4(C)[C@]3(C)CC[C@@H]12 [Compound 19]
anti-viral activity (in words) [1]: moderate
more toxic to cells than natural glycoside 1 (MDCK cells): 17 times

COC(=O)[C@H](Cc1ccccc1)NC(=O)[C@H]1O[C@@H](O[C@H]2[C@H](O[C@H]3CC[C@]4(C)[C@H]5C(=O)C=C6[C@@H]7C[C@@](C)(C(=O)O)CC[C@]7(C)CC[C@@]6(C)[C@]5(C)CC[C@H]4C3(C)C)O[C@H](C(=O)N[C@@H](Cc3ccccc3)C(=O)OC)[C@@H](O)[C@@H]2O)[C@H](O)[C@@H](O)[C@@H]1O [Compound 5]
more wide SI values than Rimantadine [1]: 12.2 times

CC1(C)[C@@H](O[C@@H]2O[C@H](C(=O)N[C@@H](CSCc3ccccc3)C(=O)O)[C@@H](O)[C@H](O)[C@H]2O[C@@H]2O[C@H](C(=O)N[C@@H](CSCc3ccccc3)C(=O)O)[C@@H](O)[C@H](O)[C@H]2O)CC[C@]2(C)[C@H]3C(=O)C=C4[C@@H]5C[C@@](C)(C(=O)O)CC[C@]5(C)CC[C@@]4(C)[C@]3(C)CC[C@@H]12 [Compound 11]
more wide SI values than Rimantadine [1]: 14.2 times

CC1(C)[C@@H](O[C@H]2O[C@H](C(=O)O)[C@@H](O)[C@H](O)[C@H]2O[C@@H]2O[C@H](C(=O)O)[C@@H](O)[C@H](O)[C@H]2O)CC[C@]2(C)[C@H]3C(=O)C=C4[C@@H]5C[C@@](C)(C(=O)O)CC[C@]5(C)CC[C@@]4(C)[C@]3(C)CC[C@@H]12 [Compound 1, Glycyrrhizic acid]
anti-viral activity (in words) [1]: did not show anti-viral activity
CD50 (MDCK cells): 364.6 µM

COC(=O)C[C@H](NC(=O)[C@H]1O[C@@H](O[C@H]2[C@H](O[C@H]3CC[C@]4(C)[C@H]5C(=O)C=C6[C@@H]7C[C@@](C)(C(=O)O)CC[C@]7(C)CC[C@@]6(C)[C@]5(C)CC[C@H]4C3(C)C)O[C@H](C(=O)N[C@@H](CC(=O)OC)C(=O)OC)[C@@H](O)[C@@H]2O)[C@H](O)[C@@H](O)[C@@H]1O)C(=O)OC [Compound 9]
anti-viral activity (in words) [1]: does not confer virus-inhibiting properties
CD50 (MDCK cells): 37.3 µM

CC1(C)[C@@H](O[C@@H]2O[C@H](C(=O)N[C@@H](CCCCNC(=O)OCc3ccccc3)C(=O)O)[C@@H](O)[C@H](O)[C@H]2O[C@@H]2O[C@H](C(=O)N[C@@H](CCCCNC(=O)OCc3ccccc3)C(=O)O)[C@@H](O)[C@H](O)[C@H]2O)CC[C@]2(C)[C@H]3C(=O)C=C4[C@@H]5C[C@@](C)(C(=O)O)CC[C@]5(C)CC[C@@]4(C)[C@]3(C)CC[C@@H]12 [Compound 13]
anti-viral activity (in words) [1]: slightly increased antiviral activity

COC(=O)C[C@H](NC(=O)[C@H]1O[C@@H](O[C@H]2[C@H](O[C@H]3CC[C@]4(C)[C@H]5C(=O)C=C6[C@H]7C[C@@](C)(C(=O)O)CC[C@]7(C)CC[C@@]6(C)[C@]5(C)CC[C@H]4C3(C)C)O[C@H](C(=O)N[C@@H](CC(=O)OC)C(=O)OC)[C@@H](O)[C@@H]2O)[C@H](O)[C@@H](O)[C@@H]1O)C(=O)OC [Compound 16]
CD50 (MDCK cells): 38.0 µM

18α-GL [Compound 15]
EC50 [1]: 15.2 µM
SI [1]: 3
anti-viral activity (in words) [1]: week anti-viral activity
more toxic to cells than natural glycoside 1 (MDCK cells): 7.7 times
